Source: patent publication US20230183243A1, “HETEROARYL DERIVATIVES AND PHARMACEUTICAL COMPOSITION COMPRISING SAME AS ACTIVE INGREDIENT” (VORONOI INC., priority 2019, published 2023)

How the values were obtained:
MDA-MB-231 cells = experiment: Inhibition of proliferation of triple-negative breast cancer cells, CellTiter-Glo; format: cell-based; settings: Homo sapiens, 120 h; MDA-MB-231, cultured for 5 days
Method in brief: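 MDA-MB-231 cells pre-cultured 24 h (5% CO2, 37 °C), then exposed to compound for 5 days at 12 three-fold dilutions, final 10 μM to 0.05 nM. Viability read by CellTiter-Glo luminescence after 10 min at 37 °C; growth inhibition calculated relative to untreated solvent-control cells.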

SHP-77 = experiment: Inhibition of proliferation of small cell lung cancer cells, CellTiter-Glo; format: cell-based; settings: Homo sapiens, SHP77, 120 h; SHP-77, cultured for 5 days
Procedure: Specifically, the following test was performed to evaluate the inhibitory activity of the compound according to the present invention against the cell proliferation in the SCLC cells.
To check an inhibitory ability of cell growth in one SCLC cell line, a test was performed as follows. Cells were seeded in 180 μL of a culture broth at a density of 2,000 to 3,000 cells/well in a white clear bottom 96-well plate (Corning) according to the growth ability of each cell, and then cultured for 24 hours under conditions of 5% CO2 and 37° C. Thereafter, the compound was prepared by diluting a 10 mM stock solution three-fold with 100% DMSO at a total of 12 concentrations so that a peak concentration of the compound was in a range of 10 mM to 0.05 μM, and the diluted compound was then diluted in each cell culture medium so that a final concentration of the compound was in a range of 100 μM to 0.5 nM. 20 μL of a diluted solution diluted with a medium was added to the cell solution in which cells were seeded in the 96-well plate on the previous day so that a final concentration of the diluted solution was in a range of 10 μM to 0.05 nM. Each of the cells was cultured for 5 days. To check cell viability, a mixture provided in aCellTiter-Glo® Luminescent Cell Viability Assay Kit (Promega) was added to each of the cultured cell media, and cultured for another 10 minutes under a condition of 37° C. Then, a degree of luminescence (fluorescence) was measured. A degree of inhibition of the cell growth according to the treatment concentration of each of the compounds was calculated based on the fluorescence of the solvent control cells which were not treated with the compound. In this case, the concentration of each of the compounds inhibiting 50% of the cell growth was determined to be a GI50 (nM) value, and calculated using Prism (Version 7.01; GraphPad) software.

TTK = molecular target: T1, TTK (Homo sapiens, UniProt P33981); experiment: TTK enzyme activity, ADP-Glo kinase assay; format: biochemical; parameters: purchased SignalChem T20-10G; settings: purified human TTK, ATP 10 μM, 25° C., 2 hours
T1 sequence (P33981 1-857): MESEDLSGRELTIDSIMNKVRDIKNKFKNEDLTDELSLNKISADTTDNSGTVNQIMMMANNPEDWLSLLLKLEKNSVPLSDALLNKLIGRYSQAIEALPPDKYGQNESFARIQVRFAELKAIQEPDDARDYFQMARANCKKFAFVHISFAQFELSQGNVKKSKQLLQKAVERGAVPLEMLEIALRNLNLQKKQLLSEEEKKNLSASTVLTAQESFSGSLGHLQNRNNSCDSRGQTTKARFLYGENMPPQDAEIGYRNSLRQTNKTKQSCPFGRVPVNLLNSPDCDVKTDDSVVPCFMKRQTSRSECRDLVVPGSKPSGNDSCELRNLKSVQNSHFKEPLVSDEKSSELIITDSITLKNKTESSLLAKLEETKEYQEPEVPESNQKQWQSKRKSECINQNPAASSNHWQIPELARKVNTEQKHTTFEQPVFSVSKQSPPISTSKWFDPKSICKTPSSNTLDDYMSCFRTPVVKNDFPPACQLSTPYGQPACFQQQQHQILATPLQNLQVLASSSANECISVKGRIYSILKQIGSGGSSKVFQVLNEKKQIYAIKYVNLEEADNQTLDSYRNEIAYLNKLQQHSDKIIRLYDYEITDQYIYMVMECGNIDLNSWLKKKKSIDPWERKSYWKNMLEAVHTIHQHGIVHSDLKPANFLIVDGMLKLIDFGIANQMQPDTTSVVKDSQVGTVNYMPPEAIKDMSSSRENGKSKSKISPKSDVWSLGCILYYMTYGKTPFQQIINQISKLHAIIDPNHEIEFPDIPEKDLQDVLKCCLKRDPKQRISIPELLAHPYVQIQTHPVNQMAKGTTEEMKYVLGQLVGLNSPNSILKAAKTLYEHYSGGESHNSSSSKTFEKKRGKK
Method in brief: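 ADP-Glo read-out; percent inhibition at each compound concentration was relative to the solvent-only control. The reactions contained 25 ng enzyme, 0.2 μg substrate and 10 μM ATP in 40 mM Tris-HCl pH 7.4 with 20 mM MgCl2, 0.5 mg/mL BSA and 50 μM DTT, and ran 2 h at 25 °C.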

Compound | GI50 (MDA-MB-231 cells) [nM] | GI50 (SHP-77) [nM] | IC50 (TTK) [nM]
COc1cc(N2CCCS2(=O)=O)ccc1Nc1nc(NC2CCCC2)c2c(C(F)(F)F)c[nH]c2n1 [Example 176, 2-(4-((4-(cyclopentylamino)-5-(trifluoromethyl)-7H-pyrrolo[2,3-d]pyrimidin-2-yl)amino)-3-methoxyphenyl) isothiazolidine 1,1-dioxide] | 100 to 1000 | 100 to 1000 | 50 to 200
N#Cc1c[nH]c2nc(Nc3ccc(N4CCCCS4(=O)=O)c(F)c3)nc(NC3CCCC3)c12 [Example 57, 4-(cyclopentylamino)-2-((4-(1,1-dioxido-l,2-thiazinan-2-yl)-3-fluorophenyl)amino)-7H-pyrrolo[2,3-d] pyrimidine-5-carbonitrile] | 100 to 1000 | < 100 | 50 to 200
Cn1nccc1-c1ccc(Nc2nc(C3=CCCCC3)c3c(C#N)c[nH]c3n2)c2c1OCCO2 [Example 130, 4-(cyclohex-1-en-1-yl)-2-((8-(1-methyl-1H-pyrazol-5-yl)-2,3-dihydrobenzo[b][1,4]dioxin-5-yl)amino)-7H-pyrrolo[2,3-d] pyrimidine-5-carbonitrile] | 100 to 1000 | 100 to 1000 | 50 to 200
COc1cc(-c2c(C)noc2C)c(F)cc1Nc1nc(NC2CCCCC2)c2c(C#N)c[nH]c2n1 [Example 123, 4-(cyclohexylamino)-2-((4-(3,5-dimethylisoxazol-4-yl)-5-fluoro-2-methoxyphenyl)amino)-7H-pyrrolo[2,3-d] pyrimidine-5-carbonitrile] | > 1000 | 100 to 1000 | 50 to 200
COc1cc(N2CCCS2(=O)=O)ccc1Nc1nc(NC2CCOCC2)c2c(C#N)c[nH]c2n1 [Example 165, 2-((4-(1,1-dioxidoisothiazolidin-2-yl)-2-methoxyphenyl)amino)-4-((tetrahydro-2H-pyran-4-yl)amino)-7H-pyrrolo[2,3-d] pyrimidine-5-carbonitrile] | < 100 | < 100 | < 50
Cn1nccc1-c1ccc(Nc2nc(NC3C[C@H]4CC[C@@H]3C4)c3c(C#N)c[nH]c3n2)c2c1OCCO2 (stereo partly drawn) [Example 61, 4-(((1R,4S)-bicyclo[2.2.l]heptan-2-yl)amino)-2-((8-(1-methyl-1H-pyrazol-5-yl)-2,3-dihydrobenzo[b][1,4]dioxin-5-yl)amino)-7H-pyrrolo[2,3-d] pyrimidine-5-carbonitrile] | < 100 | < 100 | 50 to 200
N#Cc1c[nH]c2nc(Nc3ccc(N4CCCS4(=O)=O)c(F)c3)nc(NC3CCCC3)c12 [Example 173, 4-(cyclopentylamino)-2-((4-(1,1-dioxidoisothiazolidin-2-yl)-3-fluorophenyl)amino)-7H-pyrrolo[2,3-d] pyrimidine-5-carbonitrile] | 100 to 1000 | < 100 | < 50
Cn1nccc1-c1ccc(Nc2nc(C3CC3)c3c(C#N)c[nH]c3n2)c2c1OCCO2 [Example 112, 4-cyclopropyl-2-((8-(1-methyl-1H-pyrazol-5-yl)-2,3-dihydrobenzo[b][1,4]dioxin-5-yl)amino)-7H-pyrrolo[2,3-d] pyrimidine-5-carbonitrile] | 100 to 1000 | < 100 | < 50
COc1cc(-c2c(C)noc2C)c(F)cc1Nc1nc(NC2CCOCC2)c2c(C#N)c[nH]c2n1 [Example 102, 2-((4-(3,5-dimethylisoxazol-4-yl)-5-fluoro-2-methoxyphenyl)amino)-4-((tetrahydro-2H-pyran-4-yl)amino)-7H-pyrrolo[2,3-d] pyrimidine-5-carbonitrile] | 100 to 1000 | 100 to 1000 | 200 to 1000

The next lines start with the values.

GI50 (MDA-MB-231 cells) [nM] | GI50 (SHP-77) [nM] | IC50 (TTK) [nM] | Compound
< 100 | < 100 | < 50 | COc1cc(-c2cnn(C)c2)ccc1Nc1nc(NC2CCOCC2)c2c(C#N)c[nH]c2n1 [Example 92, 2-((2-methoxy-4-(1-methyl-1H-pyrazol-4-yl)phenyl)amino)-4-((tetrahydro-2H-pyran-4-yl)amino)-7H-pyrrolo[2,3-d] pyrimidine-5-carbonitrile]
< 100 | < 100 | < 50 | COc1cc(-c2ccnn2C)c(F)cc1Nc1nc(NC2CCOCC2)c2c(C#N)c[nH]c2n1 [Example 122, 2-((5-fluoro-2-methoxy-4-(1-methyl-1H-pyrazol-5-yl)phenyl)amino)-4-((tetrahydro-2H-pyran-4-yl)amino)-7H-pyrrolo[2,3-d] pyrimidine-5-carbonitrile]
< 100 | < 100 | < 50 | Cn1nccc1-c1ccc(Nc2nc(NC3CCOCC3)c3c(C#N)c[nH]c3n2)c2c1OCCO2 [Example 40, 2-((8-(1-methyl-1H-pyrazol-5-yl)-2,3-dihydrobenzo[b][1,4]dioxin-5-yl)amino)-4-((tetrahydro-2H-pyran-4-yl)amino)-7H-pyrrolo[2,3-d] pyrimidine-5-carbonitrile]
< 100 | < 100 | < 50 | COc1cc(-c2ccnn2C)ccc1Nc1nc(NC2CCC(F)(F)C2)c2c(C#N)c[nH]c2n1 (stereo not drawn) [Example 110, 4-((3,3-difluorocyclopentyl)amino)-2-((2-methoxy-4-(l-methyl-1H-pyrazol-5-yl)phenyl)amino)-7H-pyrrolo[2,3-d] pyrimidine-5-carbonitrile]
< 100 | < 100 | 50 to 200 | Cn1cc(-c2ccc(Nc3nc(NC4CCCCCC4)c4c(C#N)c[nH]c4n3)c3c2OCCO3)cn1 [Example 150, 4-(cycloheptylamino)-2-((8-(1-methyl-1H-pyrazol-4-yl)-2,3-dihydrobenzo[b][1,4]dioxin-5-yl)amino)-7H-pyrrolo[2,3-d] pyrimidine-5-carbonitrile]
< 100 | < 100 | < 50 | COc1cc(N2CCCS2(=O)=O)ccc1Nc1nc(NC2CCCC2)c2c(C#N)c[nH]c2n1 [Example 157, 4-(cyclopentylamino)-2-((4-(1,1-dioxidoisothiazolidin-2-yl)-2-methoxyphenyl)amino)-7H-pyrrolo[2,3-d] pyrimidine-5-carbonitrile]
< 100 | < 100 | < 50 | COc1cc(-c2nncn2C)ccc1Nc1nc(NC2CCOCC2)c2c(C#N)c[nH]c2n1 [Example 90, 2-((2-methoxy-4-(4-methy1-4H-1,2,4-triazol-3-yl)phenyl)amino)-4-((tetrahydro-2H-pyran-4-yl)amino)-7H-pyrrolo[2,3-d] pyrimidine-5-carbonitrile]
< 100 | < 100 | < 50 | COc1cc(-c2ccnn2C)ccc1Nc1nc(NC2CCOC(C)(C)C2)c2c(C#N)c[nH]c2n1 (stereo not drawn) [Example 115, 4-((2,2-dimethyltetrahydro-2H-pyran-4-yl)amino)-2-((2-methoxy-4-(1-methyl-1H-pyrazol-5-yl)phenyl)amino)-7H-pyrrolo[2,3-d] pyrimidine-5-carbonitrile]
< 100 | < 100 | < 50 | COCCNc1nc(Nc2ccc(-c3ccnn3C)c3c2OCCO3)nc2[nH]cc(C#N)c12 [Example 49, 4-((2-methoxyethyl)amino)-2-((8-(1-methyl-1H-pyrazol-5-yl)-2,3-dihydrobenzo[b][1,4]dioxin-5-yl)amino)-7H-pyrrolo[2,3-d] pyrimidine-5-carbonitrile]
